Laboratory results published in publication PMC3739763 (PLoS ONE, 2013).
Like-named read-outs stand apart in the source and are kept apart here.

Assays:
[1] = biological target: T1, Human serum albumin (HSA) (Homo sapiens, UniProt P02768); assay: Isothermal titration calorimetry (ITC), sequential model of two binding sites; settings: for van't Hoff enthalpy: equation 12; for ΔCP (change in heat capacity): 25-37 °C
T1 construct: I (residues 1–195), II (196–383), III (384–585); purchased Sigma Aldrich A1887
Experimental: Prior to the titration experiment, all solutions were degassed properly on a thermovac. The 1.44 mL sample and reference cell of the calorimeter were loaded with HSA and 20 mM sodium phosphate buffer (pH 7.4), respectively. […] The reference power was set at 16 µcal s^−1. […] Heats of dilution for the ligand and protein were subtracted from the integrated data before curve fitting. The data were fitted and analyzed with a sequential model of two binding sites using Origin 7.0 provided with the MicroCal instrument. Association constant (K b) and standard enthalpy change (ΔH°) were directly obtained after fitting while ΔG° was calculated from equation 8. The ΔS ^o was calculated using the equation: [drawing 13] (10) and change in specific heat capacity can be calculated from the equation:
[drawing 14] (11) Further the standard van’t Hoff enthalpy [drawing 15] at each temperature was calculated using equation: [drawing 16] (12) here, K(T1) and K(T2) are the values of binding constant at temperatures T 1 and T 2 respectively.

[2] = biological target: T1, Human serum albumin (HSA); assay: Binding displacement measurement using site markers (fluorescence, Stern-Volmer); settings: protein:marker 1:1
Experimental: Different site markers warfarin (WAR) for site I and diazepam (DIA) for site II [19], [20] were used for performing displacement experiments. […] The fluorescence emission spectra were recorded as mentioned in fluorescence measurements and the binding constant values of drug–protein–marker were evaluated using Stern–Volmer equation.

[3] = design: method as in PMID 12675874; settings: cited from earlier work
[4] = design: method as in PMID 1643710, PMID 11721007; settings: cited from earlier work
[5] = biological target: T1, Human serum albumin (HSA); assay: Differential scanning calorimetry (DSC) thermostability of HSA in presence of HA; type: binding
Experimental: The differential scanning calorimetric measurements were carried out using VP-DSC microcalorimeter (MicroCal, Northampton, MA). The buffer and protein solutions were degassed under mild vacuum prior to the experiment. Samples were prepared in 20 mM sodium phosphate buffer, pH 7.4. […] 1∶0, 1∶5, and 1∶10 were performed from 25 to 90°C at a scan rate of 0.5°C/min. Data were analyzed using Origin software provided with the instrument to obtain the temperature at the midpoint of the unfolding transition (T m) and calorimetric enthalpy (ΔH°).

[6] = biological target: T1, Human serum albumin (HSA); assay: Esterase-like activity of HSA toward p-NPA in presence of HA; type: biochemical
[7] = biological target: T1, Human serum albumin (HSA); assay: Steady state fluorescence quenching of HSA by HA; type: binding; settings: for KSV (Stern-Volmer quenching constant) / n (binding sites): pH 7.4, HSA 5 µM; for TΔS°: van't Hoff
Experimental: Fluorescence emission spectra were recorded in range of 300–400 nm on a Shimadzu 5301PC fluorescence spectrophotometer equipped with water circulator (Julabo Eyela) at excitation wavelength of 295 nm. Both the excitation and emission slits were set at 3 nm. […] Respective blanks were subtracted. […] Furthermore if a quencher, Q, form complex, Q n B, with protein B and have ‘n’ multiple (equivalent and independent) binding sites then quenching reaction is often represented as: [drawing 5] (2) and its binding constant (Kb ) is given by equation 3:[18]
[drawing 6] (3) If the total amount of protein (with and without bound Q) is [B o], then [drawing 7] (4) [drawing 8] (5) where [B] is the concentration of the unbound protein. The fluorescence intensity is proportional to the protein concentration as described below: [drawing 9] (6) then, relationship between the fluorescence intensity and unbound protein is expressed as:
[drawing 10] (7) So, if the formation of a nonfluorescent fluorophore–quencher complex occurs, then, the value of K b can be obtained by using equation 7.

T1 sequence (P02768 25-609): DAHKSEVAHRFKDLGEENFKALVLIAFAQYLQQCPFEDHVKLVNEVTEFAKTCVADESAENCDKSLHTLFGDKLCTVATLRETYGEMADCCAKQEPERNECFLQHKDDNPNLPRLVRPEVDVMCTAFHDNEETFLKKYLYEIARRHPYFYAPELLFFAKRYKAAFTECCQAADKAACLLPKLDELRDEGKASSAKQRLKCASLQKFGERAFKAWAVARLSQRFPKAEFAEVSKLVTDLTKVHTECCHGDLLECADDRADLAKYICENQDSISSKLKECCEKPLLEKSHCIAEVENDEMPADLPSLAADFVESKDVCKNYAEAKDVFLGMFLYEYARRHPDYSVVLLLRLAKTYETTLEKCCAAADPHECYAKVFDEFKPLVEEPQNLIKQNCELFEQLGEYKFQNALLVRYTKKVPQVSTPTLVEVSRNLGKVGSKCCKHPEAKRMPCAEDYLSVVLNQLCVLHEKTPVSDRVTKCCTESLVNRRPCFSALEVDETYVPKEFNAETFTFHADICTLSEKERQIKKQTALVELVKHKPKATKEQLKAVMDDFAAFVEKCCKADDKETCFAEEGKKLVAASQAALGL

van't Hoff enthalpy ([1]; 25 °C, high affinity site): -11.98 kcal/mol
van't Hoff enthalpy ([1]; 25 °C, low affinity site): -24.69 kcal/mol
ΔG° ([1]; High affinity site, 25 °C): -6.05 ± 0.10 kcal/mol
ΔH° ([1]; High affinity site, 25 °C): -4.41 ± 0.46 kcal/mol
TΔS° ([1]; High affinity site, 30 °C): 0.76 ± 0.06 kcal/mol
ΔG° ([1]; High affinity site, 30 °C): -5.94 ± 0.01 kcal/mol
ΔH° ([1]; High affinity site, 30 °C): -5.18 ± 0.07 kcal/mol
TΔS° ([1]; High affinity site, 37 °C): -0.20 ± 0.01 kcal/mol
ΔG° ([1]; High affinity site, 37 °C): -5.93 ± 0.02 kcal/mol
ΔH° ([1]; High affinity site, 37 °C): -6.14 ± 0.15 kcal/mol
TΔS° ([1]; Low affinity site, 25 °C): -2.88 ± 0.40 kcal/mol
ΔG° ([1]; Low affinity site, 25 °C): -4.69 ± 0.10 kcal/mol
ΔH° ([1]; Low affinity site, 25 °C): -7.58 ± 0.96 kcal/mol
TΔS° ([1]; Low affinity site, 30 °C): -5.39 ± 0.35 kcal/mol
ΔG° ([1]; Low affinity site, 30 °C): -4.35 ± 0.02 kcal/mol
ΔH° ([1]; Low affinity site, 30 °C): -9.74 ± 0.34 kcal/mol
TΔS° ([1]; Low affinity site, 37 °C): -6.69 ± 0.36 kcal/mol
ΔG° ([1]; Low affinity site, 37 °C): -4.41 ± 0.03 kcal/mol
ΔH° ([1]; Low affinity site, 37 °C): -11.11 ± 0.69 kcal/mol
K b (order of magnitude) ([1]; high affinity site): ~10^4
ΔCP (change in heat capacity) ([1]; high affinity site): −0.14±0.11 kcal mol^−1°C^−1
K b (order of magnitude) ([1]; low affinity site): ~10^3
ΔCP (change in heat capacity) ([1]; low affinity site): −0.28±0.24 kcal mol^−1°C^−1
K sv of HSA-HA in presence of site marker ([2]; in presence of DIA (site II marker)): (2.03±0.03)× 10^3 M^−1
K sv of HSA-HA in presence of site marker ([2]; in presence of WAR (site I marker)): (2.74±0.04)×10^3 M^−1
Tm of first sub-transition of HSA (head drawing C00030) ([5]; HSA:HA 1∶5, HSA 18 µM): 57.25±0.01 °C
Tm of second sub-transition of HSA (head drawing C00031) ([5]; HSA:HA 1∶5, HSA 18 µM): 62.51±0.09 °C
Tm of third sub-transition of HSA (head drawing C00032) ([5]; HSA:HA 1∶5, HSA 18 µM): 73.87±0.04 °C
ΔH° of first sub-transition (head drawing C00033) ([5]; HSA:HA 1∶5, HSA 18 µM): 54.41 ± 0.10 kcal/mol
ΔH° of second sub-transition (head drawing C00034) ([5]; HSA:HA 1∶5, HSA 18 µM): 56.13 ± 0.12 kcal/mol
ΔH° of third sub-transition (head drawing C00035) ([5]; HSA:HA 1∶5, HSA 18 µM): 13.92 ± 0.07 kcal/mol
Tm of first sub-transition of HSA (head drawing C00030) ([5]; HSA:HA 1∶10, HSA 18 µM): 58.36±0.08 °C
Tm of second sub-transition of HSA (head drawing C00031) ([5]; HSA:HA 1∶10, HSA 18 µM): 63.83±0.02 °C
Tm of third sub-transition of HSA (head drawing C00032) ([5]; HSA:HA 1∶10, HSA 18 µM): 73.96±0.03 °C
ΔH° of first sub-transition (head drawing C00033) ([5]; HSA:HA 1∶10, HSA 18 µM): 68.47 ± 0.80 kcal/mol
ΔH° of second sub-transition (head drawing C00034) ([5]; HSA:HA 1∶10, HSA 18 µM): 57.37 ± 0.60 kcal/mol
ΔH° of third sub-transition (head drawing C00035) ([5]; HSA:HA 1∶10, HSA 18 µM): 13.90 ± 0.09 kcal/mol
Vmax for hydrolysis of p-NPA by HSA ([6]; HSA:HA 1∶0.5, HSA 15 µM, 25 °C): 0.16 ± 0.02 µM/s
Vmax for hydrolysis of p-NPA by HSA ([6]; HSA:HA 1∶1, HSA 15 µM, 25 °C): 0.16 ± 0.01 µM/s
Vmax for hydrolysis of p-NPA by HSA ([6]; HSA:HA 1∶2, HSA 15 µM, 25 °C): 0.16 ± 0.02 µM/s
Vmax for hydrolysis of p-NPA by HSA ([6]; HSA:HA 1∶3, HSA 15 µM, 25 °C): 0.16 ± 0.01 µM/s
Ki ([6]; competitive, substrate p-NPA, 25 °C, read-out: K i (inhibitor constant) for esterase-like activity of HSA): 21.7 µM
Mode of inhibition of esterase-like activity of HSA ([6]; substrate p-NPA): competitively
k q (bimolecular rate constant) ([7]; 25 °C): (1.36±0.06 ) ×10^12 M^−1 s^−1
ΔG° ([7]; 25 °C): -5.21 ± 0.02 kcal/mol
KSV (Stern-Volmer quenching constant) ([7]; 25 °C): (7.80±0.36) ×10^3 M^−1
n (binding sites) ([7]; 25 °C): 0.98±0.02
TΔS° ([7]; 25 °C): -23.48 ± 0.24 kcal/mol
k q (bimolecular rate constant) ([7]; 30 °C): (5.77±0.03 ) ×10^11 M^−1 s^−1
ΔG° ([7]; 30 °C): -4.88 ± 0.06 kcal/mol
KSV (Stern-Volmer quenching constant) ([7]; 30 °C): (3.30±0.02) ×10^3 M^−1
n (binding sites) ([7]; 30 °C): 0.99±0.01
TΔS° ([7]; 30 °C): -23.88 ± 0.24 kcal/mol
k q (bimolecular rate constant) ([7]; 37 °C): (2.29±0.01 ) ×10^11 M^−1 s^−1
ΔG° ([7]; 37 °C): -4.28 ± 0.01 kcal/mol
KSV (Stern-Volmer quenching constant) ([7]; 37 °C): (1.31±0.08) ×10^3 M^−1
n (binding sites) ([7]; 37 °C): 0.97±0.02
TΔS° ([7]; 37 °C): -24.43 ± 0.25 kcal/mol
K b (order of magnitude) ([7]; spectroscopic results, single site): ~10^3
SMILES: O=C(O)CNC(=O)c1ccccc1 [HA, hippuric acid]
concentration of HA ([3]; healthy individual): less than 5 mg/L
concentration of HA ([3]; patients with end-stage renal disease): higher than 247±112 mg/L
elimination of HA through hemodialysis [4]: 64%
